Measured values as given in US20090030066A1, “SMALL MOLECULES FOR THE PROTECTION OF PANCREATIC CELLS” (priority 2007, published 2009).

Tests used:
[1] = system: human mesenchymal stem cells; assay: Survival/attachment of human mesenchymal stem cells, compound present during plating; assay type: cell-based; conditions: 5-10 μM, 10% or 2% serum, 24 h
Excerpt: Bone marrow aspirates were taken from normal adult donors signed after informed consent according to a protocol approved by the appropriate Ethics Committee. For the preparation of bone marrow mesenchymal stem cells, essentially a widely used technique was used as described earlier by others [Pittenger, M. F., Mackay, A. M., Beck, S. C., Jaiswal, R. K., Douglas, R., Mosca, J. D., Moorman, M. A., Simonetti, D. W., Craig, S, and Marshak, D. R., Multilineage potential of adult human mesenchymal stem cells (1999) Science 284, 143-147]. Briefly, nucleated cells were isolated with a pre-prepared commercial density gradient (Lymphoprep, Nycomed, Pharma, Oslo, Norway) and resuspended in Dulbecco's modified Eagle's medium (DMEM) (GIBCO, Grand Island, N.Y.) supplemented with 10% fetal calf serum (FCS), 50 U/ml of penicillin, and 50 μg/ml of streptomycin (GIBCO). All nucleated cells were plated in 25-cm^2 flasks (BD Falcon, Bedford, Mass.) at 37° C. in humidified atmosphere containing 5% CO2. […] When cells grew to about 80% confluence, they were suspended and harvested by incubating with a ready-made solution containing 0.25% trypsin and 1 mM EDTA (Sigma-Aldrich, St. Louis, Mo.) for 5 minutes at 37° C.; this cell suspension is designated as passage 1. […]
The total numbers of nucleated and viable cells were determined with a hemocytometer, using Turck's solution and trypan blue stain, respectively. […]

RINm5F rat islet β-cells = assay: MTT viability of palmitic acid-treated RINm5F islet β-cells; assay type: cell-based; conditions: for A540 (MTT, relative number of viable cells): 24 h, mean ± S.D. n=8
Excerpt: In the Examples below, an MTT assay was used to determine the relative number of viable cells after treatments. This calorimetric assay is based on the ability of living cells, but not dead cells, to reduce 3-(4,5-dimethyl thiazol-2-yl)-2,5-diphenyltetrazolium bromide. [Carmichael, J, De Graff, W. G., Gazdar, A. F., Minna, J. D. and Mitchell, J. B. (1987) Evaluation of tetrazolium-based semiautomated calorimetric assay: Assessment of chemosensitivity testing. Cancer Res. 47, 936-942], which is hereby incorporated by reference. For this assay, cells were plated in 96-well plates, and the MTT assay was performed as described in the above article both in untreated and treated cell cultures. The MTT assay also was performed at the time when the treatment was started to allow for assessment of the proliferation and survival rates in the control and treated cell cultures. In the MTT assay, higher values mean proportionally higher numbers of viable cells.
RINm5F rat islet β-cells (ATCC CRL-2058; secondary clone of RIN-m clone secreting only insulin, but no somatostatin or glucagon) were used to determine if CCompound1 could protect them against fatty acid-induced cell death. The medium for propagation: RPMI 1640/10% fetal bovine serum.
Palmitic acid (purchased from Sigma-Aldrich) was dissolved in 200 mM ethanol and then diluted 1:25 with Krebs-Ringer-Hepes buffer containing 20% bovine serum albumin (fraction V, fatty acid-free; from Sigma-Aldrich). The fatty acid mixture was gently agitated at 37° C. under nitrogen overnight. The cells were seeded into 96-well plates at a density of 8,000 cells per well. When the cultures reached 70% confluence, fatty acid or a corresponding amount of albumin and CCompound1 (suspended in the medium) were added to the medium and incubations continued for 24 hours. This was followed by the MTT assay to determine the relative number of viable cells.

SMILES: Cc1c(OCC(O)C[N+](C)(C)C)cc2c(=O)c3ccccc3sc2c1C.[Cl-] (stereo not shown) [CCcompound1, [3-(3,4-Dimethyl-9-oxo-9H-thioxanthen-2-yloxy)-2-hydroxypropyl]trimethyl-ammonium chloride]
- effect on number of attached cells [1]: enhanced the number of attached cells
- effect on palmitic acid-induced decrease in the number of viable cells (RINm5F rat islet β-cells; 5 μM): partially prevented
- effect on palmitic acid-induced decrease in the number of viable cells (RINm5F rat islet β-cells; 10 μM): almost fully prevented
- effect on palmitic acid-induced decrease in the number of viable cells (RINm5F rat islet β-cells; 50 μM): added to the inhibitory effect of palmitic acid
- A540 (MTT, relative number of viable cells) (RINm5F rat islet β-cells; palmitic acid 0.5 mM + compound 5 μM): 1,198 ± 0.086
- A540 (MTT, relative number of viable cells) (RINm5F rat islet β-cells; palmitic acid 0.5 mM + compound 10 μM): 1,251 ± 0.069
- A540 (MTT, relative number of viable cells) (RINm5F rat islet β-cells; palmitic acid 0.5 mM + compound 50 μM): 0.836 ± 0.080
